Series [1] has as its system ^14C-acetate incorporation into the steroids which can be precipitated with digitonin. The series can be described thus: Inhibition of 14C-acetate incorporation into the steroids which can be precipitated with digitonin. The format is cell-based. The protocol:
I. Measuring the Inhibition of ^14C-acetate Incorporation into the Steroids which can be Precipitated with Digitonin
The inhibitory effect was investigated using the method described in J. Lipid. Res. 37, 148-157 [1996] at test concentrations of 10^−8 and 10^−9 mol/l.
The IC50 values of compounds H, I, K and M were determined.

The target of series [2] is T1, 2,3-epoxysqualene-lanosterol-cyclase (Rattus norvegicus, UniProt P48450).
T1 construct: The quantity of 2,3-epoxysqualene formed therefore serves as a direct measurement of the potency on the animal as a whole; from tissue; host or cells: living rat; 2,3-epoxysqualene measured in the liver
T1 sequence (P48450 1-733): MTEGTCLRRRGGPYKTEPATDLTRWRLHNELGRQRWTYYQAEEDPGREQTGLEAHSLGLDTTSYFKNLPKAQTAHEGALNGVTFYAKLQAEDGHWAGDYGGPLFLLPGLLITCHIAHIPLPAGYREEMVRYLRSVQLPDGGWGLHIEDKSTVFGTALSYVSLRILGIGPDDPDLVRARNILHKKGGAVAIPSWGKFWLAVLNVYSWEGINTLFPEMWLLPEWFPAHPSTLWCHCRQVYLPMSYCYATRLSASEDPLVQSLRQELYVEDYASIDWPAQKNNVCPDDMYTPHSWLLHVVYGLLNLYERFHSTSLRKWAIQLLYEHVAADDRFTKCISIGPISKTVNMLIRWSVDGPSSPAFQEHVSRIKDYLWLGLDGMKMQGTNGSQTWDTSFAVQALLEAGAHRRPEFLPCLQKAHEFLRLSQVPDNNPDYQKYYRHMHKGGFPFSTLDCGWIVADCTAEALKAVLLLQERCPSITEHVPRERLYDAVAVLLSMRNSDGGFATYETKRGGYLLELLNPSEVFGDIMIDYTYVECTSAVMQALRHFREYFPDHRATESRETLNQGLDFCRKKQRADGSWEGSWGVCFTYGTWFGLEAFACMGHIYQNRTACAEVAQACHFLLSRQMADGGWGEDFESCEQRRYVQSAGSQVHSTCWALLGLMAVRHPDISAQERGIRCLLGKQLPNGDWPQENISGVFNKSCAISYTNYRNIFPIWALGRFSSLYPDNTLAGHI
The series can be described thus: In-vivo activity in the rat after oral administration: 2,3-epoxysqualene level in the liver. The method, then:
II. Measuring the In-vivo Activity in the Rat after Oral Administration
Inhibiting the enzyme 2,3-epoxysqualene-lanosterol-cyclase causes an increase in the 2,3-epoxisqualene levels in the liver and plasma. The quantity of 2,3-epoxysqualene formed therefore serves as a direct measurement of the potency on the animal as a whole. The amounts were determined using the method described in J. Lipid. Res. 38, 564-575, [1997] after t=3 or 8 hours after administration of the substance in concentrations of c=0.01, 0.03, 0.1, 0.3 and 1.0 mg/kg. Table 3 which follows gives the results obtained for the abovementioned substances A, B, C, D, E, G, H, I and K by way of example.
In the control animals there were no measurable 2,3-epoxisqualene levels under these conditions.

The test system of series [3] is normolipaemic golden hamster. The series can be described thus: Lipid reduction in the normolipaemic golden hamster. The format is in vivo. The following applies: compared with control group. The method, then:
III. Lipid Reduction in the Normolipaemic Golden Hamster This was determined using the method described in J. Lipid. Res. 38, 564-575, (1997). At the end of the experiment the total cholesterol, β-lipoprotein-cholesterol and HDL-cholesterol were determined and compared with the values of a control group which were fed without any test substance. The lipid-lowering activity of the abovementioned compound H was tested.

Each structure is given as a SMILES string. pIC50: −log10 of the molar value.

In series [1], `CN(C)Cc1ccc(CC2CCN(C(=O)Oc3ccc(Cl)cc3)CC2)cc1.Cl` [(H), N-(4-chlorophenoxy)carbonyl-4-[4-(dimethylaminomethyl)benzyl]piperidine-hydrochloride] had a pIC50 of 9.10. Further, the inhibition at 0.01 µM in series [1] (test concentration 10^−8 mol/l, read-out: percentage by which the compound inhibits the 14C-acetate incorporation) is 80%. Moreover, the inhibition at 0.001 µM in series [1] (test concentration 10^−9 mol/l, read-out: percentage by which the compound inhibits the 14C-acetate incorporation) is 45%. Besides, the “2,3-epoxysqualene concentration in the liver (rat)” value in series [2] (c=0.1 mg/kg, t=3 h) was 1.0 µg/g; in series [2] (c=0.1 mg/kg, t=8 h), 0.8 µg/g; in series [2] (c=1.0 mg/kg, t=3 h) it was 56.3 µg/g; in series [2] (c=1.0 mg/kg, t=8 h), 20.7 µg/g. The HDL-cholesterol in series [3] (dose 6.5 mg/kg/day) was −3.4%; in series [3] (dose 19.9 mg/kg/day), −8.2%; in series [3] (dose 62.3 mg/kg/day) it was −28.5%. Further, the values for the Total cholesterol in series [3] (dose 6.5 mg/kg/day), in series [3] (dose 19.9 mg/kg/day) and in series [3] (dose 62.3 mg/kg/day) were −8.3%, −11.0% and −32.1%, respectively. Further, the β-Lipoprotein-cholesterol in series [3] (dose 6.5 mg/kg/day) was −13.0%; in series [3] (dose 19.9 mg/kg/day), −13.2%; in series [3] (dose 62.3 mg/kg/day), −33.7%.
The compound `CN(C)Cc1ccc(SC2CCN(C(=O)Oc3ccccc3)CC2)cc1.Cl` showed a melting point of 161 °C.

Source of the values: US6339096B1, “Urethanes derived from azacycloalkanes, the thio and dithio analogues thereof and their use as cholesterol biosynthesis inhibitors” (Boehringer Ingelheim Pharma KG, priority 1998, dated 2002).
